Results published in EP0162545A2, “Enhanced bioconversion processes” (BETZ EUROPE, INC., priority 1984, dated 1985).
Read-outs that look alike come from different tables or passages of the source.

What was measured:
Klebsiella pneumoniae [1] = assay: microbe, parasite or virus in culture; type: cell-based
Method: (§1) The first series of experiments involved the measurement of the amount of C02 evolved from aerobically growing cultures of the representative organism Klebsiella in the presence and absence of uncoupling agents. The known uncouplers 2, 4 dinitrophenol (DNP) and carbonyl cyanide m-chlorophenyl hydrazone (CCCP) were tested along with bis (tricholoromethyl) sulfone (TCMS) and beta-bromo-beta-nitrostyrene (BNS). It can be seen from the data that CCCP caused large increases in C02 evolution over the untreated controls at all concentrations used, with the largest increase (29%) at 5 µg/mL (24.4 uM). […] Bacterial counts also reflected the lack of uncoupling activity. […] Largest increase in C02 blowoff came at 50 ppm (32%). BNS gave a mixed pattern as opposed to those of DNP and CCCP. […] Even at 10 µg/mL, the bacterial count was reduced ~ 50% while still giving greater C02 blowoff than control cultures.
The procedure utilized to perform the first series of experiments was as follows: • Sealed vials containing 8 mL of minimal salts medium (Composition: K2HPO4-39, KH2PO4-lg, MgSO4-0.2g, (NN4)2SO4^-1g, D-glucose-5g (optional) in 1 liter. Autoclave and adjust pH to 6.8) lacking any carbon source were each injected with 1 mL of a suspension of Klebsiella pneumoniae. (Klebsiella was grown overnight, shaken at 37°C, in minimal salts medium containing glucose to a heavy cell suspension. The cells were centrifuged at 10,000 g and resuspended to a turbidity of 150 Klett units [Klett-Summerson photometer, #42 blue filter) in minimal salts medium [MSM], no glucose. These cells were again centrifuged, and resuspended in MSM at 1/10 the volume used previously. This 10X cell suspension was used as the standard inoculum for the vials.) The vials were- simultaneously injected with 1 mL of a 1 µ Ci/mL solution of ^14C-U-D glucose and the appropriate concentration of material to be tested. The compounds tested were fed at concentrations of […]. Controls received no test material and all vials were shaken during the course of the experiments at 37°C. Vials were read for C02 blowoff at the times indicated on the appropriate Tables. Standard bacterial counts were done on each vial after the end of each experimental series. [formula] [formula] [formula] [formula]

Klebsiella pneumoniae [2] = assay: Standard bacterial counts on the CO2 blowoff vials, first series; type: cell-based
Method: as §1
The procedure utilized to perform the first series of experiments was as follows: • Sealed vials containing 8 mL of minimal salts medium (Composition: K2HPO4-39, KH2PO4-lg, MgSO4-0.2g, (NN4)2SO4^-1g, D-glucose-5g (optional) in 1 liter. Autoclave and adjust pH to 6.8) lacking any carbon source were each injected with 1 mL of a suspension of Klebsiella pneumoniae. […] Vials were read for C02 blowoff at the times indicated on the appropriate Tables. […]

Klebsiella = assay: microbe, parasite or virus in culture; type: cell-based; conditions: Klebsiella, read-out: increase in C02 blowoff
Method: These patterns were the results of Klebsiella cultures having been grown on glucose (^14C-label). In nature, and in waste treatment facilities, many organic carbon compounds, both simple and complex, would be available for degradation. The known uncouplers and BNS were tested for their ability to increase C02 evolution from cultures exposed to the common substrates lactate, glycine, glycerol, and a denatured protein mixture. […] This was expected in the case of glycine but it was thought that a more complex protein might be degraded and portions used for some energyproduction. It was hoped that these compounds might be a more representative group (more abundant in waste treatment) than simple sugars for determining the extent of activity of BNS. […] Lactate, a common intermediate in microbial metabolism, and a compound which would normally be used as an oxidizable substrate for running the cytochrome chain, gave a more representative response. BNS treated cultures gave increased C02 blowoff (an increase as high as 130% at 5 µg/mL) as did both known uncouplers. […] When glycerol was used as the labeled substrate, BNS treated cultures gave increased C02 at concentrations up to 5 µg/mL.
The procedure used for determining the CO2 evolution was similar to the procedure described previously. Cells having been grown overnight in MSM and glucose were centrifuged and resuspended in MSM + glucose (cold) and used as inoculum. No other cold carbon source (unlabeled) was added. ^14C-labeled substrates (lactate, glycerol, etc.) obtained from New England Nuclear were used and supplied the radiolabeled carbon for the detection of ^14CO2. BNS was utilized in concentrations of 0.5 - 10 µg/mL. Fixed concentrations of 5 µg/mL CCCP and DNP were included for comparative purposes. The following data were obtained in these experiments.

E. coli K12 ATCC 25404 = assay: Batch culture biomass yield and glucose removal; type: cell-based, Escherichia coli
Method: Biomass determinations were by Millipore Filtration using Millipore type H.A. 0.45 µ filters. Samples were centrifuged @ 15,000 x for 10 min., supernatant was filtered through a dried and preweighed filter. The centrifuged pellet was then vortexed in 2 mL of D.I. water and filtered also. Samples were then dried overnight @ 105°C and re-weighed. Biomass was the weight of the dried filter less the tared filter weight.
Glucose determinations were carried out on the centrifuged reactor sample supernatants using glucose enzymatic assay (hexokinase and glucose 6-phosphate dehydrogenase) UV-15 Sigma Chemical Co., St. Louis, MO. (Assay set-up pamphlet accompanies kit). Spectrophotometric measurements were run on a Zeiss PM-6 Spektralphotometer, Carl Zeiss, 7082 Oberkochen, West Germany.
Escherichia coli K12 ATCC 25404 was grown to 175 K.U. (after 48 hours) on 10 g/1 dextrose, 75 mL/1 25x VBE, 5 mL/1 trace mixture. Ten mL of this culture was then used as seed for 300 mL of media of the same composition and dosed with varying concentrations of CCCP, myristic acid and salicylanilide.
Initial and 72 hour measurements for glucose and biomass were run by the previously described methods.

Saccharomyces cerevisiae = assay: Yeast-alcohol batch fermentation with uncoupler dosing; type: cell-based; conditions: 2.0 ppm CCCP
Method: Saccharomyces cerevisiae (Institute of Marine Sciences, U. Of Miami Culture Collection) was used in the following fermentation medium: 1% glucose, 13.4 g/1 yeast nitrogen Base (BBL, Cockeysville, MD), 0.5 g/1 sodium thioglycollate. pH was 5.68, temperature 33°C, agitation 8.5/10 on Fisher Versamix stirplate. CCCP was dosed at 2.0 mg/l.
Reaction vessel was a 3.0 liter working volume fermenter jar - New Brunswick Scientific. Temperature control was held by recirculation of a 33°C hot water bath through the reactor heating coils by a Little Giant Model 1 submergible pump (Little Giant Pump Co., Oklahoma City, OK).
Glucose and biomass determinations were made by the previously mentioned techniques. Ethanol determinations was by the alcohol dehydrogenase method 331-UV (Sigma Chemical Co., St. Louis, MO). Reactors were run for approximately 150 hours with sampling times varying throughout the experiment.

[3] = Escherichia coli, ATCC25404, 72 h, read-out: drop in biomass yield

Structure (SMILES): N#CC(C#N)=NNc1cccc(Cl)c1 [CCCP, carbonyl cyanide m-chlorophenyl hydrazone]
- activation at 5 µg/mL (Klebsiella pneumoniae [1]; Klebsiella pneumoniae, 5 µg/mL (24.4 uM), 14C-glucose, read-out: largest increase in C02 evolution over the untreated controls): 29%
- bacterial counts (Klebsiella pneumoniae [2]; 50 µg/mL): the same as the control levels
- activation at 5 µg/mL (Klebsiella; 14C-lactate as labeled substrate, 5 µg/mL): 151%
- glucose removal efficiency (E. coli K12 ATCC 25404; 0.4 ppm, batch, 72 hour): 100%
- carbon (glucose) removal efficiency (E. coli K12 ATCC 25404; 1.0 ppm, batch, 72 hour): 98.2%
- drop of glucose removal efficiency from control (E. coli K12 ATCC 25404; 1.9 ppm, batch, 72 hour): 4.8%
- glucose removal efficiency (E. coli K12 ATCC 25404; 1.9 ppm, batch, 72 hour): 95.2%
- inhibition of growth at 0.4 ppm (E. coli K12 ATCC 25404; [3]): 14.6%
- inhibition of growth at 1 ppm (E. coli K12 ATCC 25404; [3]): 28%
- inhibition of growth at 1.9 ppm (E. coli K12 ATCC 25404; [3]): 42.7%
- g ETOH formed hr. max. (Saccharomyces cerevisiae): 0.45
- g ETOH formed hr. max., change vs Control (Saccharomyces cerevisiae): +41.6%
- g glucose consumed/hr. max. (Saccharomyces cerevisiae): 0.39
- g glucose consumed/hr. max., change vs Control (Saccharomyces cerevisiae): +88%
- g cells mole glucosef (Saccharomyces cerevisiae; f = final): 6.59
- g cells mole glucosef, change vs Control (Saccharomyces cerevisiae; f = final): -44.1%
- mole ETOH/Mole Glucosef g cells (Saccharomyces cerevisiae; f = final): 4.02
- mole ETOH/Mole Glucosef g cells, change vs Control (Saccharomyces cerevisiae; f = final): +105.1%
- moles ETOH/ mole glucosef* (Saccharomyces cerevisiae; f = final): 1.39
- moles ETOH/ mole glucosef*, change vs Control (Saccharomyces cerevisiae; f = final): +9.4%

Structure (SMILES): CCCCCCCCCCCCCC(=O)O [Myristic acid, myristic acid]
- inhibition of growth at 25 ppm (E. coli K12 ATCC 25404; Escherichia coli, ATCC25404, 25 ppm, batch, 72 hour, read-out: reduction in biomass yield): 19.5%
- inhibitory effects on glucose removal (E. coli K12 ATCC 25404; up to 25 ppm, batch, 72 hour): no inhibitory effects

Structure (SMILES): O=S(=O)(C(Cl)(Cl)Cl)C(Cl)(Cl)Cl [TCMS, bis (tricholoromethyl) sulfone]
- uncoupling property (C02 evolution) (Klebsiella pneumoniae [1]; all concentrations, 14C-glucose): no uncoupling property

Structure (SMILES): O=C(Nc1ccccc1)c1ccccc1O [Salicylanilide, salicylanilide]
- glucose removal efficiency (E. coli K12 ATCC 25404; 50.5 ppm, batch, 72 hour): 99.7%
- inhibition of growth at 50.5 ppm (E. coli K12 ATCC 25404; Escherichia coli, ATCC25404, 50.5 ppm, batch, 72 hour, read-out: drop in biomass yield): ≤ 40.2%

Structure (SMILES): O=[N+]([O-])c1ccc(O)c([N+](=O)[O-])c1 [DNP, 2, 4 dinitrophenol, reference compound]
- activation at 50 ppm (Klebsiella pneumoniae [1]; Klebsiella pneumoniae, read-out: Largest increase in C02 blowoff): 32%
- minimal effective concentration (Klebsiella pneumoniae [1]; Klebsiella pneumoniae, read-out: concentrations causing significant increases in C02 blowoff): > 5 µg/mL
- toxic effects (bacterial counts) (Klebsiella pneumoniae [2]; even at 50 ppm): no toxic effects
- activation at 5 µg/mL (Klebsiella): 83%
